In patent publication US20220055989A1, “CONDENSED PYRROLES AS NOVEL BROMODOMAIN INHIBITORS” (ALBERT LUDWING UNIVERSITÄT FREIBURG, priority 2018, published 2022):

What was measured:
ATAD2A [1] = target: T1, ATAD2A (Homo sapiens, UniProt Q6PL18); assay: BROMOscan Kd determination ATAD2A; type: binding
T1 construct: T7 phage strains displaying bromodomains were grown in parallel; made in house; host or cells: T7 phage grown in an E. coli host derived from the BL21 strain
Method: (§1) Bromodomain profiling was carried out on the basis of BROMOscan™. This platform accounted for the indirect determination of the dissociation constants between 19 bromodomains and the compound of formula (13), by binding competition against a reference immobilized ligand. Compounds that bind the bromodomain prevent its binding to the immobilized ligand thus reducing the amount of protein captured. […] Hits are identified by measuring the amount of bromodomain captured in test versus control samples. Bromodomain assays for Kd determination: T7 phage strains displaying bromodomains were grown in parallel in 24-well blocks in an E. coli host derived from the BL21 strain. E. coli were grown to log-phase and infected with T7 phage from a frozen stock (multiplicity of infection=0.4) and incubated with shaking at 32° C. until lysis (90-150 minutes). The lysates were centrifuged (5,000×g) and filtered (0.2 μm) to remove cell debris. […] Kds were determined using an 11-point 3-fold compound dilution series with one DMSO control point. […] The bromodomain concentration in the eluates was measured by qPCR. […] Most Kds were determined using a compound top concentration=10,000 nM. […] Binding Constants (Kds): Binding constants (Kds) were calculated with a standard dose-response curve using the Hill equation: The Hill Slope was set to −1. […]

BRD4(1, 2) = target: T2, BRD4(1, 2) (Homo sapiens, UniProt O60885); assay: BROMOscan Kd determination BRD4(1, 2); type: binding
T2 construct: T7 phage strains displaying bromodomains were grown in parallel; made in house; host or cells: T7 phage grown in an E. coli host derived from the BL21 strain
Method: as §1

BRD4(short-iso.) = target: T3, BRD4(short-iso.) (Homo sapiens, UniProt O60885); assay: BROMOscan Kd determination BRD4(short-iso.); type: binding
T3 construct: host or cells: T7 phage in E. coli derived from BL21
Method: as §1

BRD8(2) = target: T4, BRD8(2) (Homo sapiens, UniProt Q9H0E9); assay: BROMOscan Kd determination BRD8(2); type: binding
T4 construct: T7 phage strains displaying bromodomains were grown; host or cells: T7 phage in E. coli derived from BL21
Method: as §1

EP300 = target: T5, EP300 (Homo sapiens, UniProt Q09472); assay: BROMOscan Kd determination EP300; type: binding
T5 construct: T7 phage strains displaying bromodomains were grown; host or cells: T7 phage in E. coli derived from BL21
T5 sequence (Q09472 1049-1156 limits assumed): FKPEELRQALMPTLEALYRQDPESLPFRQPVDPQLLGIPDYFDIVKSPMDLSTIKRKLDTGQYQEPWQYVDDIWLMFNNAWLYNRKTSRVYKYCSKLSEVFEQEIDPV
Method: Bromodomain profiling was carried out on the basis of BROMOscan™. This platform accounted for the indirect determination of the dissociation constants between 19 bromodomains and the compound of formula (13), by binding competition against a reference immobilized ligand. Compounds that bind the bromodomain prevent its binding to the immobilized ligand thus reducing the amount of protein captured. […] Hits are identified by measuring the amount of bromodomain captured in test versus control samples. Bromodomain assays for Kd determination: T7 phage strains displaying bromodomains were grown in parallel in 24-well blocks in an E. coli host derived from the BL21 strain. E. coli were grown to log-phase and infected with T7 phage from a frozen stock (multiplicity of infection=0.4) and incubated with shaking at 32° C. until lysis (90-150 minutes). The lysates were centrifuged (5,000×g) and filtered (0.2 μm) to remove cell debris. […] The liganded beads were blocked with excess biotin and washed with blocking buffer (SeaBlock (Pierce), 1% BSA, 0.05% Tween 20, 1 mM DTT) to remove unbound ligand and to reduce non-specific phage binding. […] Test compounds were prepared as 1000× stocks in 100% DMSO. Kds were determined using an 11-point 3-fold compound dilution series with one DMSO control point. All compounds for Kd measurements are distributed by acoustic transfer (non-contact dispensing) in 100% DMSO. The compounds were then diluted directly into the assays such that the final concentration of DMSO was 0.09%. All reactions performed in polypropylene 384-well plates. Each was a final volume of 0.02 ml. […] The bromodomain concentration in the eluates was measured by qPCR. […] All compounds for Kd measurements are distributed by acoustic transfer (non-contact dispensing) in 100% DMSO. The compounds were then diluted directly into the assays such that the final concentration of DMSO was 0.09%. Most Kds were determined using a compound top concentration=10,000 nM. If the initial Kd determined was <0.169 nM (the lowest concentration tested), the measurement was repeated with a serial dilution starting at a lower top concentration. Binding Constants (Kds): Binding constants (Kds) were calculated with a standard dose-response curve using the Hill equation: The Hill Slope was set to −1. Curves were fitted using a non-linear least square fit with the Levenberg-Marquardt algorithm.

PCAF = target: T6, PCAF (Homo sapiens, UniProt Q92831); assay: BROMOscan Kd determination PCAF; type: binding
T6 construct: T7 phage strains displaying bromodomains were grown in parallel; host or cells: T7 phage grown in E. coli host derived from BL21
Method: as §1

TAF1(2) [2] = target: T7, TAF1(2) (Homo sapiens, UniProt P21675); assay: BROMOscan Kd determination TAF1(2); type: binding
T7 construct: FALZ, PBRM1-BD2, BPRM1-BDS, TAF1-BD2, TAF1L-BD2; host or cells: T7 phage grown in E. coli host derived from BL21
Method: as §1

TRIM33(PHD, Bromo.) = target: T8, TRIM33(PHD, Bromo.) (Homo sapiens, UniProt Q9UPN9); assay: BROMOscan Kd determination TRIM33(PHD, Bromo.); type: binding
T8 construct: TRIM33(PHD, Bromo.); the phage DNA is read by qPCR
Method: as §1

ATAD2A [3] = target: T1, ATAD2A; assay: Bromodomain assay % Ctrl determination ATAD2A; details: lower numbers indicate a stronger binding
Method: (§2) Compounds that bind the bromodomain prevent its binding to the immobilized ligand thus reducing the amount of protein captured. […] Hits are identified by measuring the amount of bromodomain captured in test versus control samples. Bromodomain assays for % Ctrl determination: T7 phage strains displaying bromodomains were grown in parallel in 24-well blocks in an E. coli host derived from the BL21 strain. E. coli were grown to log-phase and infected with T7 phage from a frozen stock (multiplicity of infection=0.4) and incubated with shaking at 32° C. until lysis (90-150 minutes). The lysates were centrifuged (5,000×g) and filtered (0.2 μm) to remove cell debris. […] The liganded beads were blocked with excess biotin and washed with blocking buffer (SeaBlock (Pierce), 1% BSA, 0.05% Tween 20, 1 mM DTT) to remove unbound ligand and to reduce non-specific phage binding. […] Test compounds were prepared as 1000× stocks in 100% DMSO and subsequently diluted 1:25 in monoethylene glycol (MEG). The compounds were then diluted directly into the assays such that the final concentrations of DMSO and MEG were 0.1% and 2.4%, respectively. All reactions were performed in polypropylene 384-well plates in a final volume of 0.02 ml. […] The bromodomain concentration in the eluates was measured by qPCR. […]

BRD2(1) = target: T9, BRD2(1) (Homo sapiens, UniProt P25440); assay: Bromodomain assay % Ctrl determination BRD2(1); details: lower numbers indicate a stronger binding
T9 construct: T7 phage strains displaying bromodomains were grown in parallel; made in house; host or cells: T7 phage grown in an E. coli host derived from the BL21 strain
Method: as §2

BRD3(1) = target: T10, BRD3(1) (Homo sapiens, UniProt Q15059); assay: Bromodomain assay % Ctrl determination BRD3(1); details: lower numbers indicate a stronger binding
T10 construct: T7 phage strains displaying bromodomains were grown in parallel; made in house; host or cells: T7 phage grown in an E. coli host derived from the BL21 strain
Method: as §2

CREBBP = target: T11, CREBBP (Homo sapiens, UniProt Q92793); assay: Bromodomain assay % Ctrl determination CREBBP; details: lower numbers indicate a stronger binding
T11 construct: T7 phage strains displaying bromodomains were grown; host or cells: T7 phage in E. coli derived from BL21
Method: as §2

PBRM1(2) = target: T12, PBRM1(2) (Homo sapiens, UniProt Q86U86); assay: Bromodomain assay % Ctrl determination PBRM1(2); details: lower numbers indicate a stronger binding
T12 construct: FALZ, PBRM1-BD2, BPRM1-BDS, TAF1-BD2, TAF1L-BD2; host or cells: T7 phage grown in E. coli host derived from BL21
Method: as §2

SMARCA4 = target: T13, SMARCA4 (Homo sapiens, UniProt P51532); assay: Bromodomain assay % Ctrl determination SMARCA4; details: lower numbers indicate a stronger binding
T13 construct: T7 phage strains displaying bromodomains were grown in parallel; host or cells: T7 phage grown in E. coli host derived from BL21
Method: as §2

TAF1(2) [4] = target: T7, TAF1(2); assay: Bromodomain assay % Ctrl determination TAF1(2); details: lower numbers indicate a stronger binding
Method: as §2

TRIM24(PHD, Bromo) = target: T14, TRIM24(PHD, Bromo) (Homo sapiens, UniProt O15164); assay: Bromodomain assay % Ctrl determination TRIM24(PHD, Bromo); details: lower numbers indicate a stronger binding
T14 construct: T7 phage strains displaying bromodomains were grown in parallel; host or cells: T7 phage grown in E. coli host derived from BL21
Method: as §2

T7 sequence (P21675 1519-1628 limits assumed): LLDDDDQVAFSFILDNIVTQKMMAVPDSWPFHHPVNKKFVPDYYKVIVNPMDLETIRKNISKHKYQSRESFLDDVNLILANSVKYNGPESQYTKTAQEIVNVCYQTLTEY
T1 sequence (Q6PL18 980-1092 limits assumed): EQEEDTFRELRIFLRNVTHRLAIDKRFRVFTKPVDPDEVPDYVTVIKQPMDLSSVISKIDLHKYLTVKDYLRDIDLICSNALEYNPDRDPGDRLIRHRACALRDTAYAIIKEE
T11 sequence (Q92793 1085-1192 limits assumed): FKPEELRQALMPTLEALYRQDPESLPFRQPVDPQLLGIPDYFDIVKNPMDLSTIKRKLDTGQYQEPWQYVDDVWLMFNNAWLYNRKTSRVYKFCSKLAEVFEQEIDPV
T14 sequence (O15164 824-1006 limits assumed): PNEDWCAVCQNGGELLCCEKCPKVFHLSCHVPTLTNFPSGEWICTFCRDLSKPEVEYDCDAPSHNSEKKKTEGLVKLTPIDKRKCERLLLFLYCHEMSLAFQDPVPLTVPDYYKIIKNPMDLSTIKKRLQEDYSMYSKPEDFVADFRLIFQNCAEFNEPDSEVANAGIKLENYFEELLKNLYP
T10 sequence (Q15059 34-140 limits assumed): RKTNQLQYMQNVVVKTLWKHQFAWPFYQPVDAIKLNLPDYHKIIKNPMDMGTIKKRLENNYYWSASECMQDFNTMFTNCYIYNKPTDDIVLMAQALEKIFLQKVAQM
T4 sequence (Q9H0E9 1099-1207 limits assumed): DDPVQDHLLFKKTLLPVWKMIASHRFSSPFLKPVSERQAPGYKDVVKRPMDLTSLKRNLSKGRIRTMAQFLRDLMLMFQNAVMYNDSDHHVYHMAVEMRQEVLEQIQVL
T9 sequence (P25440 74-180 limits assumed): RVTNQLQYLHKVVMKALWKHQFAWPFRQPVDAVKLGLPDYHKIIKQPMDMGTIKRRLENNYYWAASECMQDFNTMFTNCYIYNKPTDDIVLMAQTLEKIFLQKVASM
T8 sequence (Q9UPN9 whole entry): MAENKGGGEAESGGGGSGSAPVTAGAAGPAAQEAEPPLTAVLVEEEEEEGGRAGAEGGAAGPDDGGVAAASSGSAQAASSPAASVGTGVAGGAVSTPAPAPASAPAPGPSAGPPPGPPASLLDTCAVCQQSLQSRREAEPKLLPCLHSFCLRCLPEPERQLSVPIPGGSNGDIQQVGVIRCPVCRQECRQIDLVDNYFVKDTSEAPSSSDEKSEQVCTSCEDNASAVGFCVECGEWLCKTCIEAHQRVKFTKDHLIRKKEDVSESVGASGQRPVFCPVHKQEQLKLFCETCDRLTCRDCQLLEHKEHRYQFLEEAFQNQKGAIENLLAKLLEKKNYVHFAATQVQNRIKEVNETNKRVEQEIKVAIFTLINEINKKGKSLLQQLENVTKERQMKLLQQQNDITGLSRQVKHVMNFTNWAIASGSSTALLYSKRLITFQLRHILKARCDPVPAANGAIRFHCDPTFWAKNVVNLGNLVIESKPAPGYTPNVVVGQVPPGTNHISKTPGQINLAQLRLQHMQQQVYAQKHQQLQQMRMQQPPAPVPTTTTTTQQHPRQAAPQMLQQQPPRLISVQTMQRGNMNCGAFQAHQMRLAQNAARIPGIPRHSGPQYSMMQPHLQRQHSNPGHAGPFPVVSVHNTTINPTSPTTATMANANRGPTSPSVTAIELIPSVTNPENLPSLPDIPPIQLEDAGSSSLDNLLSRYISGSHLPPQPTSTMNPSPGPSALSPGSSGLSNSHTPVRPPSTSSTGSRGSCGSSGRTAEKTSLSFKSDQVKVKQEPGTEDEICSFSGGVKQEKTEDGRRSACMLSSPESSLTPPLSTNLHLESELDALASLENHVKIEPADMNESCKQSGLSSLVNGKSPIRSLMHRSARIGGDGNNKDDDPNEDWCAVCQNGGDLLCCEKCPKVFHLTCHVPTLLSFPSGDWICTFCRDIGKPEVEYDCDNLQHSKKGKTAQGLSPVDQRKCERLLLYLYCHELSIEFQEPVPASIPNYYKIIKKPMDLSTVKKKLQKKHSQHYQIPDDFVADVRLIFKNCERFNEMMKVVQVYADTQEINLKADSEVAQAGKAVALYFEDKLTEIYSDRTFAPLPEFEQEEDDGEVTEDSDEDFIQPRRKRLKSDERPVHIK
T13 sequence (P51532 1453-1564 limits assumed): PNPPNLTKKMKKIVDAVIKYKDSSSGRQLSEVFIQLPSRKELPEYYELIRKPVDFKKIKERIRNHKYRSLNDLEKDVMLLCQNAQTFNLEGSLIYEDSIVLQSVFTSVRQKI
T6 sequence (Q92831 723-827 limits assumed): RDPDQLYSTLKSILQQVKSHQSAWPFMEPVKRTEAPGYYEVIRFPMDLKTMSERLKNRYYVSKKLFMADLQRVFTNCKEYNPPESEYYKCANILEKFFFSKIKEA
T12 sequence (Q86U86 177-287 limits assumed): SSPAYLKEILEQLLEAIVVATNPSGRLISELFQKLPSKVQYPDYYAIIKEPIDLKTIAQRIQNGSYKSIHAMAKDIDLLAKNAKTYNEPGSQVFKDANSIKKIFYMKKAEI

Row | Kd (ATAD2A [1]) [µM] | Kd (BRD4(1, 2)) [µM] | Kd (BRD4(short-iso.)) [µM] | Kd (BRD8(2)) [µM] | Kd (EP300) [µM] | Kd (PCAF) [µM] | Kd (TAF1(2) [2]) [µM] | Kd (TRIM33(PHD, Bromo.)) [µM] | % Ctrl @ 10 000 nM ATAD2A (ATAD2A [3]) [% Ctrl] | % Ctrl @ 10 000 nM BRD2(1) (BRD2(1)) [% Ctrl] | % Ctrl @ 10 000 nM BRD3(1) (BRD3(1)) [% Ctrl] | % Ctrl @ 10 000 nM CREBBP (CREBBP) [% Ctrl] | % Ctrl @ 10 000 nM PBRM1(2) (PBRM1(2)) [% Ctrl] | % Ctrl @ 10 000 nM SMARCA4 (SMARCA4) [% Ctrl] | % Ctrl @ 10 000 nM TAF1(2) (TAF1(2) [4]) [% Ctrl] | % Ctrl @ 10 000 nM TRIM24(PHD, Bromo) (TRIM24(PHD, Bromo)) [% Ctrl] | Structure (SMILES)
1 | > 10 | 0.16 | 0.18 | > 10 | 1.2 | > 10 | 4.1 | 7.7 |  |  |  |  |  |  |  |  | Cc1[nH]c(-c2cc(N)ccc2Cl)c2c1C(=O)CCCC2 [Compound 23]
2 |  |  |  |  |  |  |  |  | 94 | 0 | 0.05 | 4.7 | 75 | 71 | 7.4 | 82 | COc1ccc(S(=O)(=O)N2CCOCC2)cc1NC(=O)c1[nH]c(C)c2c1CCCCC2=O [Compound 13, N-(2-methoxy-5-(morpholinosulfonyl)phenyl)-3-methyl-4-oxo-2,4,5,6,7,8-hexahydrocyclohepta[c]pyrrole-1-carboxamide]
